Read-outs that look alike come from different tables or passages of the source. Marks after values point to notes of the source that are not given here.

Details of series [1]: method as in PMID 36548517. The note with it: phase solubility, 0.1 M phosphate buffer (pH 2.1), 25 °C, mean ± SD (n = 3); cited from earlier work.
Details of series [2]: method as in PMID 36548517. The note with it: 0.1 M phosphate buffer (pH 2.1), 25 °C, cited from earlier work.
On the set-up of series [3]: method as in PMID 36548517. The note with it: proton Y monitored, 0.1 M sodium borate/D2O, 25 °C, total concentration 1.0 × 10^−2 M; cited from earlier work.
Details of series [4]: method as in PMID 36548517. The note with it: phase solubility, 0.1 M phosphate buffer (pH 2.1), 25 °C, mean ± SD (n = 3); cited from earlier work. The source holds these as a separate data set.
Series [5] in a line: Phase solubility study with γCD. Type of series: physicochemical. Particulars: 0.1 M phosphate buffer (pH 2.1), 25 °C, mean ± SD (n = 3). The method, then: (§1) Phase solubility studies were conducted according to the method described by Higuchi and Connors. Briefly, 1 mL of CD solutions (0 to 14 mM, pH 2.1) were added to excess amounts of PB or related compounds placed in screw cap tubes. The resulting samples were shaken for 72 h at 25 °C and 120 rpm (Multi Shaker MMS-3020 in a temperature control chamber FMC-1000; Eyela Co., Ltd., Tokyo, Japan). The resulting suspensions were filtered through 0.2 µm membrane filters (Minisart RC 4, Sartorius Stedim Lab Ltd., Stonehouse, UK) and diluted appropriately. The solubility of PB or related compounds was determined by HPLC, and the data were used to construct phase solubility diagrams. The guest/host ratios for the systems showing BS-type solubility diagrams were estimated as the quotient of the amount of undissolved guest at the start of the plateau region and the CD concentration range corresponding to the plateau region.
(§2) HPLC measurements were performed according to a previous report using a JASCO HPLC system (Jasco Corp., Tokyo, Japan). A YMC-PACK ODS AM 303 column (5 µm, 250 mm × 4.6 mm, YMC Co., Kyoto, Japan) was used as the stationary phase and was maintained at 40 °C. […] For PC and PH, the elution program used was 0–7 min (50–100% B), 7–10 min (100% B), and 10–15 min (100–50% B) at a constant flow rate of 1 mL/min.

Series [6] is described as follows: Phase solubility study with βCD. Type of series: physicochemical. The note with it: 0.1 M phosphate buffer (pH 2.1), 25 °C, mean ± SD (n = 3). On the procedure:
as §1, §2

Series [7] in a line: Phase solubility study with αCD. Type of series: physicochemical. Particulars: 0.1 M phosphate buffer (pH 2.1), 25 °C; for Apparent stability constant K αCD / Guest/Host Ratio αCD: phase solubility, mean ± SD (n = 3). The method, then:
as §1, §2

Series [8] in a line: 1H NMR continuous variation plot with αCD. Type of series: binding. Particulars: proton Y monitored, 0.1 M sodium borate/D2O, 25 °C, total concentration 1.0 × 10^−2 M. On the procedure: ^1H NMR spectra were obtained using a JEOL-A500 spectrometer (Tokyo, Japan) operating at 500 MHz in 5 mm sample tubes at 25 °C using D2O/0.1 M sodium borate (pH meter reading of 9.4) as solvent. The resonance at 4.68 to 4.75 ppm, due to residual solvents (H2O and HOD), was used as an internal reference. Chemical shifts are given as parts per million (ppm), with an accuracy of ±0.001. No external reference was used to avoid possible interactions with the CDs. The ^1H NMR signals of the guests (PB and related compounds) were assigned by 2D ^1H-^1H correlation spectroscopy (COSY), whereas those of the CDs were assigned according to a previous report. The complex stoichiometries were determined by the continuous variation method, where the total concentrations of CD and guest were kept constant at 1.0 × 10^−2 M. In addition, the changes in the chemical shift of CDs and the guest protons in their equimolar systems (5.0 × 10^−3 M) were monitored. […] The stability constant values of the complexes formed by PH were determined from the curves. Two-dimensional ROESY NMR experiments were performed for the CD-PH systems in the phase-sensitive mode using the same spectrometer. Each spectrum consisted of a matrix of F2 by F1 covering a sweep width of 5000 Hz with 36 scans. The spin-lock mixing time was 800 ms, with a relaxation delay of 4 s, and a 90° pulse width of 11.8 µs. The concentration of guest and host were 2.5 × 10^−2 M/1.0 × 10^−1 M (PH/αCD), 1.5 × 10^−2 M/2.5 × 10^−2 M (PH/βCD), and 2.5 × 10^−2 M/2.5 × 10^−2 M (PH/γCD). The stability constants (K1:1) of the PH–CD complexes were estimated by analyzing the first-order dependences of the chemical shift change of PH protons on CD concentration using Equation (2):(2) δobs=δ0+δ1K1:1CDf/1+K1:1CDf where δ0 and δobs are chemical shifts of PH protons without or with CD, respectively, and δ1 is the chemical shift of PH protons in the 1:1 complex.

A short description of series [9]: 1H NMR molar ratio titration with βCD (stability constant). Type of series: binding. The method, then: (§3) ^1H NMR spectra were obtained using a JEOL-A500 spectrometer (Tokyo, Japan) operating at 500 MHz in 5 mm sample tubes at 25 °C using D2O/0.1 M sodium borate (pH meter reading of 9.4) as solvent. The resonance at 4.68 to 4.75 ppm, due to residual solvents (H2O and HOD), was used as an internal reference. Chemical shifts are given as parts per million (ppm), with an accuracy of ±0.001. No external reference was used to avoid possible interactions with the CDs. The ^1H NMR signals of the guests (PB and related compounds) were assigned by 2D ^1H-^1H correlation spectroscopy (COSY), whereas those of the CDs were assigned according to a previous report. The complex stoichiometries were determined by the continuous variation method, where the total concentrations of CD and guest were kept constant at 1.0 × 10^−2 M. In addition, the changes in the chemical shift of CDs and the guest protons in their equimolar systems (5.0 × 10^−3 M) were monitored. […] The stability constant values of the complexes formed by PH were determined from the curves. […]
(§4) The equation was analyzed by the iteration method since the concentration of free CD ([CD]f) is unknown unless K1:1 had been determined beforehand. […] Therefore, by setting [CD]f = [CD]t as a first approximation, Equation (2) was analyzed by a nonlinear least-squares method, and, in turn, [CD]f values were calculated using the obtained apparent K1:1 value. […]

Series [10] in a line: 1H NMR molar ratio titration with γCD (stability constant). Type of series: binding. The method, then:
as §3, §4

Series [11] is described as follows: 1H NMR molar ratio titration with αCD (stability constant). Type of series: binding. The method, then: as §3, §4
Setting [12] is: NMR value (pH 9.4) vs phase solubility value (pH 2.1).

With `O=C(O)CCCc1ccccc1` [PB, 4-phenylbutyrate], in series [1], the “Apparent stability constant K γCD” value was 119 ± 9 ^a M^−1 and the “Guest/Host Ratio γCD” value is recorded as 2.14 ± 0.08 ^b. The “Phase solubility diagram type with αCD” value in series [2] is “AL-type”. The “Apparent stability constant K αCD” value in series [2] (phase solubility, mean ± SD (n = 3)) is listed as 481 ± 26 ^a M^−1. Moreover, in [3], the “Maximum of continuous variation plot, guest/(guest + host) mole fraction, αCD” value is given as 0.5. In series [4], the “Apparent stability constant K βCD” value is listed as 178 ± 23 ^a M^−1 and the “Guest/Host Ratio βCD” value is reported as 1.02 ± 0.05 ^b.

Take `O=C(O)CCCCCc1ccccc1` [PC, 6-phenylcaproic acid]: in series [5], the “Apparent stability constant K γCD” value was found to be 499 ± 59 M⁻¹ and the “Guest/Host Ratio γCD” value worked out at 2.30 ± 0.03. Moreover, in series [6], the “Apparent stability constant K βCD” value is 2283 ± 134 M⁻¹ and the “Guest/Host Ratio βCD” value worked out at 1.08 ± 0.01. Further, in series [7], the “Phase solubility diagram type with αCD” value was “BS-type”, the “Apparent stability constant K αCD” value was determined as 1185 ± 35 M⁻¹ and the “Guest/Host Ratio αCD” value turned out to be 0.55 ± 0.03. The “Maximum of continuous variation plot, guest/(guest + host) mole fraction, αCD” value in series [8] amounted to 0.35.

Regarding `O=C(O)CCCCCCc1ccccc1` [PH, 7-phenylheptanoic acid], in series [5], the “Apparent stability constant K γCD” value turned out to be 1213 ± 18 M⁻¹ and the “Guest/Host Ratio γCD” value was 2.20 ± 0.01. In series [6], the “Apparent stability constant K βCD” value was determined as 7458 ± 52 M⁻¹ and the “Guest/Host Ratio βCD” value was determined as 1.02 ± 0.01. In series [7], the “Phase solubility diagram type with αCD” value was “BS-type”, the “Apparent stability constant K αCD” value stood at 2500 ± 50 M⁻¹ and the “Guest/Host Ratio αCD” value was 0.44 ± 0.01. The “Maximum of continuous variation plot, guest/(guest + host) mole fraction, αCD” value in series [8] is on record as 0.35. Moreover, the “Reduction of stability constant of βCD complex compared to value at pH 2.1” value in series [9] (setting [12]) was 3 fold. Moreover, the “Stability constant K1:1 of βCD complex from 1H NMR chemical shift change” value in series [9] (determined from protons A and X, 0.1 M sodium borate/D2O (pH 9.4), 25 °C) was 2513 ± 469 M⁻¹. Moreover, the “Reduction of stability constant of γCD complex compared to value at pH 2.1” value in series [10] (setting [12]) was determined as 3 fold. Besides, the “Stability constant K1:1 of γCD complex from 1H NMR chemical shift change” value in series [10] (determined from protons C and X, 0.1 M sodium borate/D2O (pH 9.4), 25 °C) was 370 ± 6 M⁻¹. Besides, the “Reduction of stability constant of αCD complex compared to value at pH 2.1” value in series [11] (setting [12]) is given as 20 fold. Moreover, the “Stability constant K1:1 of αCD complex from 1H NMR chemical shift change” value in series [11] (determined from protons A and Y, 0.1 M sodium borate/D2O (pH 9.4), 25 °C) is 123 ± 2 M⁻¹.

Consider `O=C(O)CCc1ccccc1` [PP, 3-phenylpropionic acid], for which the “Apparent stability constant K γCD” value in [5] came to 34 ± 1 M⁻¹. In addition, in series [6], the “Apparent stability constant K βCD” value came to 74 ± 3 M⁻¹. For the same compound, in series [7], the “Phase solubility diagram type with αCD” value was “AL-type” and the “Apparent stability constant K αCD” value turned out to be 226 ± 5 M⁻¹.

For `O=C(O)CCCCc1ccccc1` [PV, 5-phenylvaleric acid], in series [5], the “Apparent stability constant K γCD” value is 223 ± 7 M⁻¹ and the “Guest/Host Ratio γCD” value was found to be 2.21 ± 0.03. Besides, in series [6], the “Apparent stability constant K βCD” value was 838 ± 52 M⁻¹ and the “Guest/Host Ratio βCD” value amounted to 0.99 ± 0.05. Moreover, in series [7], the “Phase solubility diagram type with αCD” value is given as “AL-type” and the “Apparent stability constant K αCD” value is 639 ± 20 M⁻¹. The “Maximum of continuous variation plot, guest/(guest + host) mole fraction, αCD” value in [8] is listed as 0.35.

Source of the values: article PMC10606765, “Study of the Structural Chemistry of the Inclusion Complexation of 4-Phenylbutyrate and Related Compounds with Cyclodextrins in Solution: Differences in Inclusion Mode with Cavity Size Dependency” (International Journal of Molecular Sciences, 2023).
